In brackets after ≈: the same amount, converted by molar mass. Where two headings read alike, the source gives them in different places.
Test system: Mycobacterium tuberculosis H37Rv
Experiment: Susceptibility testing against Mycobacterium tuberculosis H37Rv (broth microdilution, resazurin readout)
Type: cell-based
Details: M. tuberculosis H37Rv, 7 days at 37° C., resazurin fluorescence; for MIC99: Gomperz fit, read-out: MIC99 (μM) M. tub H37Rv; for MIC50: read-out: MIC50 (μM) M. tub H37Rv
[1] = Mycobacterium tuberculosis, 168 h

SMILES	MIC99 [1] [µM]	MIC50 [1] [µM]	MIC50 [µM]
Clc1cc(Cl)cc(C2CC(CN3CCCC3)N2Cc2ccccc2Br)c1 (racemic) [Azet 32, rac-1-(((2,4-cis)-1-(2-bromobenzyl)-4-(3,5-dichlorophenyl)azetidin-2-yl)methyl)pyrrolidine]	9.21 (≈ 4.18 µg/mL)	7.58 (≈ 3.44 µg/mL)	–
FC(F)(F)c1ccccc1CN1C(CN2CCCC2)CC1c1ccccc1 (racemic) [Azet 63, rac-1-(((2,4-cis)-4-phenyl-1-(2-(trifluoromethyl)benzyl)a-zetidin-2-yl)methyl)pyrrolidine]	–	22.7 (≈ 8.5 µg/mL)	–
CN(C)CC1CC(c2ccc(OC(F)(F)F)cc2)N1Cc1ccccc1OC(F)(F)F (racemic) [Azet 5, rac-N,N-dimethyl-1-((2,4- cis)-1-(2-(trifluoromethoxy)benzyl)-4-(4-(trifluoromethoxy)phenyl)azetidin-2-yl)methanamine]	12 (≈ 5.38 µg/mL)	9.9 (≈ 4.44 µg/mL)	–
Brc1cc(Br)cc(C2CC(CN3CCCC3)N2Cc2ccccc2Br)c1 (racemic) [Azet 34, rac-1-(((2,4-cis)-1-(2-bromobenzyl)-4-(3,5-dibromophenyl)azetidin-2-yl)methyl)pyrrolidine]	3.26 (≈ 1.77 µg/mL)	7.03 (≈ 3.82 µg/mL)	–
FC(F)(F)c1ccc(C2CC(CN3CCCC3)N2Cc2ccccc2C(F)(F)F)cc1 (racemic) [Azet 51, rac-1-(((2,4-cis)-1-(2-(trifluoromethyl)benzyl)-4-(4-(trifluoromethyl)phenyl)a-zetidin-2-yl)methyl)pyrrolidine]	–	8.31 (≈ 3.68 µg/mL)	–
FC(F)(F)Oc1ccc(C2CC(CN3CCCC3)N2Cc2ccccc2OC(F)(F)F)cc1 (racemic) [Azet 59, rac-1-(((2,4-cis)-1-(2-(trifluoromethoxy)benzyl)-4-(4-(trifluoromethoxy)phenyl)azetidin-2-yl)methyl)pyrrolidine]	6.25 (≈ 2.97 µg/mL)	9.42 (≈ 4.47 µg/mL)	–
FC(F)(F)Oc1ccccc1CN1C(CN2CCCC2)CC1c1ccccc1 (racemic) [Azet 61, rac-1-(((2,4-cis)-4-phenyl-1-(2-(trifluoromethoxy)benzyl)azetidin-2-yl)methyl)pyrrolidine]	–	17.9 (≈ 6.99 µg/mL)	–
FC(F)(F)Oc1ccc(C2CC(CN3CCC(c4ccc(C(F)(F)F)cc4)CC3)N2Cc2ccccc2Br)cc1 (racemic) [Azet 39, rac-1-(((2,4-cis)-1-(2-bromobenzyl)-4-(4-(trifluoromethoxy)phenyl)azetidin-2-yl)methyl)-4-(4-(trifluoromethyl)phenyl)pi-peridine]	90.9 (≈ 57 µg/mL)	85 (≈ 53.3 µg/mL)	–
COCCNCC1CC(c2ccc(OC(F)(F)F)cc2)N1Cc1ccccc1OC(F)(F)F (racemic) [Azet 20, rac-2-methoxy-N-(((2,4- cis)-1-(2-(trifluoromethoxy)benzyl)-4-(4-(trifluoromethoxy)phenyl)azetidin-2-yl)methyl)ethan-1-amine]	18 (≈ 8.61 µg/mL)	11 (≈ 5.26 µg/mL)	–
FC(F)(F)Oc1cccc(C2CC(CN3CCCC3)N2Cc2ccccc2OC(F)(F)F)c1 (racemic) [Azet 58, rac-1-(((2,4-cis)-1-(2-(trifluoromethoxy)benzyl) (trifluoromethoxy)phenyl)azetidin-2-yl)methyl)pyrrolidine]	–	9.14 (≈ 4.34 µg/mL)	–
CN(C)CC1CC(c2cc(Br)cc(Br)c2)N1Cc1ccccc1Br (racemic) [Azet 2, rac-1-((2,4-cis)-1-(2-bromobenzyl)-4-(3,5-dibromophenyl)azetidin-2-yl)-N,N-dimethylmethanamine]	–	5.6 (≈ 2.9 µg/mL)	–
Cc1ccccc1CN1C(CN2CCCC2)CC1c1ccccc1 (racemic) [Azet 62, rac-1-(((2,4-cis)-1-(2-methylbenzyl)-4-phenylazetidin-2-yl)methyl)pyrrolidine]	–	37 (≈ 11.9 µg/mL)	–
COc1ccccc1CN1C(CN2CCCC2)CC1c1ccc(Br)cc1 (racemic) [Azet 48, rac-1-(((2,4-cis)-4-(4-bromophenyl)-1-(2-methoxybenzyl)azetidin-2-yl)methyl)pyrrolidine]	–	20.3 (≈ 8.43 µg/mL)	–
CC(C)(C)c1ccc(C2CC(CN3CCCC3)N2Cc2ccccc2C(F)(F)F)cc1 (racemic) [Azet 52, rac-1-(((2,4-cis)-4-(4-(tert-butyl)phenyl)-1-(2-(trifluoromethyl)benzyl)a-zetidin-2-yl)methyl)pyrrolidine]	–	–	8.62 (≈ 3.71 µg/mL)
FC(F)(F)Oc1ccc(C2CC(CNC3CC3)N2Cc2ccccc2OC(F)(F)F)cc1 (racemic) [Azet 18, rac-N-(((2,4-cis)-1-(2-(trifluoromethoxy)benzyl)-4-(4-(trifluoromethoxy)phenyl)azetidin-2-yl)methyl)cyclopropana-mine]	13 (≈ 5.99 µg/mL)	11.9 (≈ 5.48 µg/mL)	–
COc1ccccc1CN1C(CN2CCCC2)CC1c1cccc(Cl)c1 (racemic) [Azet 54, rac-1-(((2,4-cis)-4-(3-chlorophenyl)-1-(2-methoxybenzyl)azetidin-2-yl)methyl)pyrrolidine]	–	11.7 (≈ 4.34 µg/mL)	–
Brc1cc(Br)cc(C2CC(CNC3CC3)N2Cc2ccccc2Br)c1 (racemic) [Azet 1, rac-N-(((2,4-cis)-1-(2-bromobenzyl)-4-(3,5-dibromophenyl)azetidin-2-yl)methyl)cyclopropana-mine]	51.8 (≈ 27.4 µg/mL)	11.8 (≈ 6.24 µg/mL)	–
COc1ccccc1CN1C(CN2CCCC2)CC1c1ccccc1Cl (racemic) [Azet 55, rac-1-(((2,4-cis)-4-(2-chlorophenyl)-1-(2-methoxybenzyl)azetidin-2-yl)methyl)pyrrolidine]	–	27.6 (≈ 10.2 µg/mL)	–
COc1ccccc1CN1C(CN2CCCC2)CC1c1ccc(Cl)cc1 (racemic) [Azet 53, rac-1-(((2,4-cis)-4-(4-chlorophenyl)-1-(2-methoxybenzyl)azetidin-2-yl)methyl)pyrrolidine]	–	10.3 (≈ 3.82 µg/mL)	–
COc1ccc(C2CC(CN3CCCC3)N2Cc2ccccc2Br)cc1 (racemic) [Azet 42, rac-1-(((2,4-cis)-1-(2-bromobenzyl)-4-(4-methoxyphenyl)azetidin-2-yl)methyl)pyrrolidine]	42.6 (≈ 17.7 µg/mL)	20.8 (≈ 8.64 µg/mL)	–
CN(C)CC1CC(c2cc(C(F)(F)F)cc(C(F)(F)F)c2)N1Cc1ccccc1Br (racemic) [Azet 4, rac-1-((2,4-cis)-4-(3,5-bis(trifluoromethyl)phenyl)-1-(2-bromobenzyl)azetidin-2-yl)-N,N-dimethylmethanamine]	7.3 (≈ 3.62 µg/mL)	6.59 (≈ 3.26 µg/mL)	–
CC(C)NCC1CC(c2ccc(OC(F)(F)F)cc2)N1Cc1ccccc1Br (racemic) [Azet 29, rac-N-(((2,4-cis)-1-(2-bromobenzyl)-4-(4-(trifluoromethoxy)phenyl)azetidin-2-yl)methyl)propan-2-amine]	24.5 (≈ 11.2 µg/mL)	9.85 (≈ 4.5 µg/mL)	–
CC(C)NCC1CC(c2ccccc2)N1Cc1ccccc1OC(F)(F)F (racemic) [Azet 30, rac-N-(((2,4-cis)-4-phenyl-1-(2-(trifluoromethoxy)benzyl)azetidin-2-yl)methyl)propan-2-amine]	48.9 (≈ 18.5 µg/mL)	21.1 (≈ 7.99 µg/mL)	–
FC(F)(F)c1ccccc1CN1C(CN2CCCC2)CC1c1ccccc1C(F)(F)F (racemic) [Azet 49, rac-1-(((2,4-cis)-1-(2-(trifluoromethyl)benzyl)-4-(2-(trifluoromethyl)phenyl)a-zetidin-2-yl)methyl)pyrrolidine]	–	6.68 (≈ 2.96 µg/mL)	–
CNCC1CC(c2ccc(OC(F)(F)F)cc2)N1Cc1ccccc1OC(F)(F)F (racemic) [Azet 19, rac-N-methyl-1-((2,4-cis)-1-(2-(trifluoromethoxy)benzyl) (trifluoromethoxy)phenyl) azetidin-2-yl)methanamine]	7.2 (≈ 3.13 µg/mL)	4.5 (≈ 1.95 µg/mL)	–
C#CCNCC1CC(c2cc(Br)cc(Br)c2)N1Cc1ccccc1Br (racemic) [Azet 3, rac-N-(((2,4-cis)-1-(2-bromobenzyl)-4-(3,5-dibromophenyl)azetidin-2-yl)methyl)prop-2-yn-1-amine]	–	22.8 (≈ 12 µg/mL)	–
FC(F)(F)c1cccc(C2CC(CN3CCCC3)N2Cc2ccccc2C(F)(F)F)c1 (racemic) [Azet 50, rac-1-(((2,4-cis)-1-(2-(trifluoromethyl)benzyl)-4-(3-(trifluoromethyl)phenyl)a-zetidin-2-yl)methyl)pyrrolidine]	–	7.04 (≈ 3.11 µg/mL)	–
CC(C)NCC1CC(c2ccc(OC(F)(F)F)cc2)N1Cc1ccccc1OC(F)(F)F (racemic) [Azet 31, rac-N-(((2,4-cis)-1-(2-(trifluoromethoxy)benzyl)-4-(4-(trifluoromethoxy)phenyl)azetidin-2-yl)methyl)propan-2-amine]	26.4 (≈ 12.2 µg/mL)	8.89 (≈ 4.11 µg/mL)	–
FC(F)(F)c1cc(C2CC(CN3CCCC3)N2Cc2ccccc2Br)cc(C(F)(F)F)c1 (racemic) [Azet 33, rac-1-(((2,4-cis)-4-(3,5-bis(trifluoromethyl)phenyl)-1-(2-bromobenzyl)azetidin-2-yl)methyl)pyrrolidine]	3.29 (≈ 1.72 µg/mL)	6.93 (≈ 3.61 µg/mL)	–
FC(F)(F)Oc1ccccc1CN1C(CN2CCCC2)CC1c1ccccc1OC(F)(F)F (racemic) [Azet 57, rac-1-(((2,4-cis)-1-(2-(trifluoromethoxy)benzyl) (trifluoromethoxy)phenyl)azetidin-2-yl)methyl)pyrrolidine]	–	7.05 (≈ 3.34 µg/mL)	–

From patent US20220096437A1, “ANTIBACTERIAL COMPOUNDS” (The University of Birmingham, priority 2019, published 2022)
